Assay [1] has as its target T1, N-terminally GST-tagged mTOR (Homo sapiens, UniProt P42345).
T1 construct: truncated version: amino acids 1360-2549; purchased Life Technologies PR8683B
Description: In vitro mTOR binding assay (LanthaScreen TR-FRET). To be noted: LanthaScreen kinase binding, Tracer 314; read-out: mTOR IC50 (binding). On the technique in general: TR-FRET usually uses a lanthanide donor and a delayed reading to cut background.
Description: A 10-point 4-fold serial dilution (highest concentration at 10 μmol/L and lowest concentration at 40 μmol/L) of each compound was tested for mTOR binding in duplicate in a 384-well plate. […] After 30 min incubation at RT, time-resolved FRET was measured with a Synergy 4 multi-mode microplate reader (Biotek Instruments) using the following settings: 100 microsecs delay before data collection, 200 microsecs time for data collection, 10 measurements per data point.
IC50 values of each compound were determined by plotting the emission ratio versus the compound concentrations (in logarithmic scale) and then by fitting a sigmoidal dose-response curve with variable slope to the data using GraphPad™ Prism.

For assay [2], the system named is pS6 S235/S236 in A2058 cells. Description: In-cell Western blot, pS6 S235/S236. The following applies: Homo sapiens, 1 hour treatment. It is filed as cell-based.
Description: (§1) Cells are fixed with 4% paraformaldehyde for 30 minutes at room temperature, washed 2 times with 1% BSA in PBS, permeabilized with 0.1% Triton X-100 in PBS/1% BSA for 30 minutes at room temperature and blocked with 5% goat serum in PBS/1% BSA/0.1% Triton X-100 for 30 minutes at room temperature. […] Cells are washed 3 times 5 minutes with PBS/1% BSA/0.1% triton and plate scanned with the Odyssey Infrared Scanning system using both 700 and 800 nm channels. […] To correct for background staining in the data analysis wells are treated only with secondary antibodies.
(§2) For data analysis the mean background signal from channel 700 nm and 800 nm are subtracted from each signal in channel 700 nm and 800 nm, respectively.
(§3) IC50 values of each compound are determined by plotting the normalized pPBK S473 and pS6 S235/S236 signals, respectively, versus the compound concentrations (in logarithmic scale) and then by fitting a sigmoidal dose-response curve with variable slope to the data using GraphPad™ Prism.
The next assay concerns pPKB S473 in A2058 cells. Description: In-cell Western blot, pPKB S473. It is filed as cell-based. The following applies: Homo sapiens, 1 hour treatment.

T1 sequence (P42345 1360-2549): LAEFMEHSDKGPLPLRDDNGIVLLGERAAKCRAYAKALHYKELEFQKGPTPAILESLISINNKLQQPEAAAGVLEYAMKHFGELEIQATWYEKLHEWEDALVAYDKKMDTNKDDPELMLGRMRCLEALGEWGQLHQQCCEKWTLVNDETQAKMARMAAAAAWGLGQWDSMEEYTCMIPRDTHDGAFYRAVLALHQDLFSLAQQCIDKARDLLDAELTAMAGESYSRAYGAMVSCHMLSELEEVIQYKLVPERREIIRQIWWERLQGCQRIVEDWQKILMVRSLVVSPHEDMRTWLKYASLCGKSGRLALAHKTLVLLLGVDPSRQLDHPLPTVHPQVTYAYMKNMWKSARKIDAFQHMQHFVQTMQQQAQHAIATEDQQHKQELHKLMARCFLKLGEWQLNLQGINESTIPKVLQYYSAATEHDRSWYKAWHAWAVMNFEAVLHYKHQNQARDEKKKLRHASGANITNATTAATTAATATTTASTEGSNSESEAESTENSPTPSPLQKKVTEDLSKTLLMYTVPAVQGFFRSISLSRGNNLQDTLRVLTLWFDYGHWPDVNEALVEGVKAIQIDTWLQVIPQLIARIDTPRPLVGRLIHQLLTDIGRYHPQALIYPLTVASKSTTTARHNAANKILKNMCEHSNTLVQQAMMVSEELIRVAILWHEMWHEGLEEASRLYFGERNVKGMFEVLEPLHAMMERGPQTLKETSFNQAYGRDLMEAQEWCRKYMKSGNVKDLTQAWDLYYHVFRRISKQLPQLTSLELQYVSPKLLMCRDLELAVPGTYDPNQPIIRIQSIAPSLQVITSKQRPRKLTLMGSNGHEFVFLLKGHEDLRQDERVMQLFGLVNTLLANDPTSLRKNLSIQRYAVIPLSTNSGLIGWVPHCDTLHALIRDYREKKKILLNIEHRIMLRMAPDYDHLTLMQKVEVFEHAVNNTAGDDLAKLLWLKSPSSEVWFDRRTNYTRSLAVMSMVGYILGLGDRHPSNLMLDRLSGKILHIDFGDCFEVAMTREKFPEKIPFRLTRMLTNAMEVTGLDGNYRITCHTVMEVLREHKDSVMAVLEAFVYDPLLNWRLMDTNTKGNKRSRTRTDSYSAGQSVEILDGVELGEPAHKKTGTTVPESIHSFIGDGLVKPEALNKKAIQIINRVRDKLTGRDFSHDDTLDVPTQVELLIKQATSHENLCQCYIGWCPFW
Description for pPKB S473 in A2058 cells: as §1, §2, §3

What is called IC50 is the concentration that inhibits the measured activity by half. On to `C[C@H]1COCCN1c1nc(-c2cnc(N)cc2C(F)F)nc(N2CCOCC2)n1` [Compound 8, (S)-4-(difluoromethyl)-5-(4-(3-methylmorpholino)-6-morpholino-1,3,5-triazin-2-yl)pyridin-2-amine], for which the 50% inhibitory concentration (IC50) in assay [1] was found to be 10 nM; in assay [2], 68 nM; with pPKB S473 in A2058 cells it was 74 nM.
On to `C[C@H]1COCCN1c1nc(-c2cnc(N)nc2C(F)F)nc(N2CCOCC2)n1` [Compound 9], for which the figures for the IC50 (in assay [1]; in assay [2]; in the assay with pPKB S473 in A2058 cells) were 24 nM, 72 nM and 35 nM, respectively.
Regarding `Nc1cc(C(F)F)c(-c2nc(N3CCNCC3)nc(N3CCOCC3)n2)cn1` [Compound 12], the half-maximal inhibitory concentration (IC50) worked out at 543 nM in assay [1]; 515 nM in assay [2] (A2058, 1 h); 208 nM with pPKB S473 in A2058 cells (A2058, 1 h).
On to `Nc1ncc(-c2nc(N3CCNCC3)nc(N3CCOCC3)n2)c(C(F)F)n1` [Compound 13], for which the half-inhibitory concentration (IC50) in assay [1] is 1020 nM; in assay [2] (A2058, 1 h), 150 nM; in the assay with pPKB S473 in A2058 cells (A2058, 1 h), 43 nM.
For `Nc1cc(C(F)F)c(-c2cc(N3CCOCC3)nc(N3CCOCC3)n2)cn1` [Compound 16, 4-(difluoromethyl)-5-(2,6-dimorpholinopyrimidin-4-yl)pyridin-2-amine], the IC50 in assay [1] is 30 nM; in assay [2], 184 nM; in the assay with pPKB S473 in A2058 cells, 207 nM.
As to `Nc1ncc(-c2cc(N3CCOCC3)nc(N3CCOCC3)n2)c(C(F)F)n1` [Compound 17, 4′-(difluoromethyl)-2,6-dimorpholino-[4,5′-bipyrimidin]-2′-amine], the 50% inhibitory concentration (IC50) came to 155 nM in assay [1] and 149 nM in assay [2].
As to `Nc1cc(C(F)F)c(-c2nc(N3CCOCC3)cc(N3CCOCC3)n2)cn1` [Compound 18, 4-(difluoromethyl)-5-(4,6-dimorpholinopyrimidin-2-yl)pyridin-2-amine], the half-maximal inhibitory concentration (IC50) in assay [1] came out at 31 nM; in assay [2] it was 256 nM; in the assay with pPKB S473 in A2058 cells it was 243 nM.
For the molecule `Nc1cc(C(F)F)c(-c2nc(N3CCOCC3)nc(N3CCSCC3)n2)cn1` [Compound 20], the IC50 in assay [1] amounted to 13 nM; in assay [2] (A2058, 1 h), 250 nM; with pPKB S473 in A2058 cells (A2058, 1 h), 146 nM.
For `Nc1ncc(-c2nc(N3CCOCC3)nc(N3CCSCC3)n2)c(C(F)F)n1` [Compound 21], the half-maximal inhibitory concentration (IC50) in assay [1] is 54 nM; in assay [2] (A2058, 1 h), 216 nM; in the assay on pPKB S473 in A2058 cells (A2058, 1 h), 57 nM.
Turning to `Nc1cc(C(F)F)c(-c2cc(N3C4CCC3COC4)nc(N3C4CCC3COC4)n2)cn1` [Compound 22, 5-(6-(3-oxa-8-azabicyclo[3.2.1]octan-8-yl)-2-(3-oxa-8-azabicyclo[3.2.1]octan-8-yl)pyrimidin-4-yl)-4-(difluoromethyl)pyridin-2-amine], the concentration for half-maximal inhibition (IC50) in assay [1] turned out to be 18 nM; in assay [2] (A2058, 1 h) it was 216 nM; with pPKB S473 in A2058 cells (A2058, 1 h), 57 nM.
As to `Nc1cc(C(F)F)c(-c2cc(N3CCOCC3)nc(N3C4CCC3COC4)n2)cn1` [Compound 23, 5-(2-(3-oxa-8-azabicyclo[3.2.1]octan-8-yl)-6-morpholinopyrimidin-4-yl)-4-(difluoromethyl)pyridin-2-amine], the 50% inhibitory concentration (IC50) in assay [1] was 40 nM; in assay [2] (A2058, 1 h), 230 nM; in the assay with pPKB S473 in A2058 cells (A2058, 1 h), 285 nM.
Take `Nc1ncc(-c2cc(N3CCOCC3)nc(N3C4CCC3COC4)n2)c(C(F)F)n1` [Compound 24, 2-(3-oxa-8-azabicyclo[3.2.1]octan-8-yl)-4′-(difluoromethyl)-6-morpholino-[4,5′-bipyrimidin]-2′-amine]: the half-inhibitory concentration (IC50) in assay [1] came out at 35 nM; in assay [2] (A2058, 1 h), 167 nM; with pPKB S473 in A2058 cells (A2058, 1 h) it was 84 nM.
For `C[C@H]1COCCN1c1cc(-c2cnc(N)cc2C(F)F)nc(N2CCOC[C@@H]2C)n1` [Compound 25, 5-(2,6-bis((S)-3-methylmorpholino)pyrimidin-4-yl)-4-(difluoromethyl)pyridin-2-amine], the IC50 turned out to be 32 nM in assay [1]; 294 nM in assay [2] (A2058, 1 h); 303 nM in the assay on pPKB S473 in A2058 cells (A2058, 1 h).
Consider `C[C@H]1COCCN1c1cc(-c2cnc(N)nc2C(F)F)nc(N2CCOC[C@@H]2C)n1` [Compound 26, 4′-(difluoromethyl)-2,6-bis((S)-3-methylmorpholino)-[4,5′-bipyrimidin]-2′-amine], for which the IC50 in assay [1] worked out at 47 nM; in assay [2] (A2058, 1 h) it was 191 nM; with pPKB S473 in A2058 cells (A2058, 1 h), 87 nM.
For the molecule `C[C@H]1COCCN1c1cc(-c2cnc(N)cc2C(F)F)nc(N2CCOCC2)n1` [Compound 27, (S)-4-(difluoromethyl)-5-(6-(3-methylmorpholino)-2-morpholinopyrimidin-4-yl)pyridin-2-amine], the half-maximal inhibitory concentration (IC50) in assay [1] worked out at 65 nM; in assay [2] it was 766 nM; with pPKB S473 in A2058 cells, 614 nM.
In the same order, the values of `C[C@H]1COCCN1c1nc(-c2cnc(N)cc2C(F)F)cc(N2CCOCC2)n1` [Compound 31, (S)-4-(difluoromethyl)-5-(2-(3-methylmorpholino)-6-morpholinopyrimidin-4-yl)pyridin-2-amine] are 15 nM, 124 nM and 146 nM.
For `C[C@H]1COCCN1c1nc(-c2cnc(N)nc2C(F)F)cc(N2CCOCC2)n1` [Compound 32, (S)-4′-(difluoromethyl)-2-(3-methylmorpholino)-6-morpholino-[4,5′-bipyrimidin]-2′-amine], in that order: 293 nM, 387 nM and 100 nM.
Take `CC1(C)COCCN1c1nc(-c2cnc(N)cc2C(F)F)nc(N2CCOCC2(C)C)n1` [Compound 39, 5-[4,6-bis(3,3-dimethylmorpholin-4-yl)-1,3,5-triazin-2-yl]-4-(difluoromethyl)pyridin-2-amine]: the concentration for half-maximal inhibition (IC50) in assay [1] amounted to 1 nM; in assay [2] (A2058, 1 h), 47 nM; in the assay on pPKB S473 in A2058 cells (A2058, 1 h), 106 nM.
Take `C[C@@H]1COC[C@H](C)N1c1nc(-c2cnc(N)cc2C(F)F)nc(N2[C@H](C)COC[C@@H]2C)n1` [Compound 40, 5-[4,6-bis[(3R,5S)-3,5-dimethylmorpholin-4-yl]-1,3,5-triazin-2-yl]-4-(difluoromethyl)pyridin-2-amine]: the figures for the IC50 (in assay [1]; in assay [2]; in the assay on pPKB S473 in A2058 cells) were 5 nM, 160 nM and 252 nM, respectively.
On to `C[C@@H]1COCCN1c1nc(-c2cnc(N)cc2C(F)F)nc(N2CCOC[C@H]2C)n1` [Compound 41, 5-[4,6-bis[(3R)-3-methylmorpholin-4-yl]-1,3,5-triazin-2-yl]-4-(difluoromethyl)pyridin-2-amine], for which the values for the IC50 (in assay [1]; in assay [2]; with pPKB S473 in A2058 cells) were 22 nM, 261 nM and 436 nM, respectively.
Consider `CC1(C)COCCN1c1nc(-c2cnc(N)cc2C(F)F)nc(N2CCOCC2)n1` [Compound 42, 4-(difluoromethyl)-5-[4-(3,3-dimethylmorpholin-4-yl)-6-morpholino-1,3,5-triazin-2-yl]pyridin-2-amine], for which the IC50 in assay [1] came out at 3 nM; in assay [2] (A2058, 1 h), 45 nM; in the assay on pPKB S473 in A2058 cells (A2058, 1 h) it was 54 nM.
Turning to `C[C@@H]1COCCN1c1nc(-c2cnc(N)cc2C(F)F)nc(N2[C@H](C)COC[C@@H]2C)n1` [Compound 44, 4-(difluoromethyl)-5-[4-[(3R,5S)-3,5-dimethylmorpholin-4-yl]-6-[(3R)-3-methylmorpholin-4-yl]-1,3,5-triazin-2-yl]pyridin-2-amine], the concentration for half-maximal inhibition (IC50) in assay [1] came to 5 nM; in assay [2] (A2058, 1 h) it was 87 nM; in the assay with pPKB S473 in A2058 cells (A2058, 1 h), 197 nM.

The values above are taken from patent publication US10993947B2, “Treatment of skin lesions” (PIQUR THERAPEUTICS AG, priority 2016, dated 2021).
